Measurements from paper PMC6353801, “Enhanced Anti-diabetic Effect of Berberine Combined With Timosaponin B2 in Goto-Kakizaki Rats, Associated With Increased Variety and Exposure of Effective Substances Through Intestinal Absorption” (Frontiers in Pharmacology, 2019).
Where “and” joins values, the source holds several entries; their conditions need not be identical. Equal values may be shown once.

How the values were obtained:
[1] = PK in systemic plasma of GK rats after repeated oral administration (day 35); assay type: in vivo, rat; conditions: GK rats, systemic plasma; for Cmax / half-life / Tmax / AUC: male, GK, rat, po, mean ± SE, n = 8; for Cmax / half-life / Tmax: plasma; for half-life: read-out: T1/2 (converted); for Tmax: read-out: Tmax; for AUC: read-out: AUC
Procedure: Analyses were performed on a Shimadzu LCMS-8030 triple quadrupole system (Shimadzu Corp., Japan) equipped with an electrospray ionization source. Data processing was performed using Shimadzu LC–MS LabSolutions (version 5.42 SP4, Shimadzu, Japan). Chromatographic separation was carried out on a Waters CORTECS C18+ column (100 mm × 2.1 mm, 2.7 μm, Ireland) with a security guard C18+ column (5 mm × 2.1 mm, 2.7 μm, Ireland). […] The gradient elution was 85% B from 0 to 2.5 min, 85% B–83% B from 2.5 to 3.0 min, 83% B from 3.0 to 6.0 min, 83% B–40% B from 6.0 to 6.5 min, 40% B from 6.5 to 7.0 min, 40% B–85% B from 7.0 to 7.2 min, and 85% B from 7.2 to 12 min. […] The optimized precursor-to-product ion pairs (collision energy) were in the positive mode as follows: m/z 579.20–255.15 (28 V) for TB-2 (at 4.1 min) and timosaponin A3 (at 6.1 min) and 271.50–154.70 (25 V) for tolbutamide (IS, at 5.8 min). […] If the concentrations of the compounds were over the linear range, the relevant samples were diluted with blank matrix by a factor of 10. […] Four-week-old male GK rats were fed a high-fat diet, and age-matched non-diabetic Wistar rats were fed standard chow as the control group. Under these dietary conditions, blood glucose was estimated each week for 7 weeks in 12-h fasted rats using a portable glucometer (One Touch Sure Step Meter, Johnson & Johnson, United States) by drawing the blood from the tail vein. GK rats with fasting blood glucose levels (FBG) above 16.7 mM were considered as diabetic rats, and only uniformly diabetic rats were used in this study. […] All the drugs were suspended in 0.5% carboxymethylcellulose sodium (CMC-Na) solution for oral gavage (10 ml/kg) once per day (at 9:00) for 6 weeks. Simultaneously, the Wistar and vehicle groups received vehicle over the treatment period. Food consumption and body weight were measured every week throughout the experimental periods. Non-fasting blood glucose (NFBG) levels were determined by collecting blood samples from the tail vein (at 9:00), and FBG levels were determined after a 6-h fast (at 15:00) on days 0, 7, 14, 21, and 42. On day 28, an oral glucose tolerance test (OGTT) was performed after an overnight fast. […] On day 42, the rats were anesthetized with urethane (1.4 g/kg, dissolved in saline) after an overnight fast and were sacrificed to collect the liver, kidney, heart, and spleen. The organs were weighed after washing with saline and drying to calculate the organ coefficient, namely, the ratio between the weight of organs and the body in each rat. The liver samples were diluted with 3 volumes (0.5 g/1.5 ml) of saline and homogenized. The liver homogenates and plasma samples (100 μl) were precipitated with three volumes of acetonitrile (containing 10 μg/ml tolbutamide). […] Then, 100 μl of the original mobile phase was added, and the samples were vortexed for 5 min and centrifuged at 13,000 rpm at 4°C for 10 min. Finally, the supernatant was used for HPLC–QQQ–MS/MS analysis. A non-compartmental analysis was performed using WinNonlin software (Pharsight 6.2, Raleigh, NC, United States) to calculate the PK parameters. The significance of PK parameters in normal rats, generated by the sparse method in WinNonlin, was assessed with Welch’s unequal variances t-test. The significance of the other results was assessed using two-tailed Student’s t-tests. Statistical significance was defined as P < 0.05.

[2] = PK in portal vein plasma of Wistar rats (before hepatic clearance); conditions: for AUC / Cmax / Tmax / half-life: male, Wistar, rat, po
[3] = PK in systemic plasma of Wistar rats (after hepatic clearance) and liver extraction ratio; conditions: for ERliver (liver extraction ratio): (AUCpor−AUCsys)/AUCpor; for Tmax / AUC / Cmax / half-life: male, Wistar, rat, po; for Tmax: n = 5
[4] = Liver distribution in Wistar rats; conditions: liver; for AUC ± SE / Cmax / half-life / Tmax: n = 5; for Cmax / half-life / Tmax: male, Wistar, rat, po; for Cmax: Cmax ± SE; for half-life: T1/2, Wistar rats
[5] = 33.3 mg/kg, day 35, oral BBR+TB-2 (66.7+33.3 mg/kg)
[6] = 66.7 mg/kg, day 35, oral BBR 66.7 mg/kg alone
[7] = Wistar rats, TB-2+BBR treatments
[8] = 33.3 mg/kg, Wistar rats, single oral BBR+TB-2 (66.7+33.3 mg/kg)
[9] = 66.7 mg/kg, Wistar rats, single oral BBR 66.7 mg/kg alone

COc1ccc2cc3[n+](cc2c1O)CCc1cc2c(cc1-3)OCO2 [M1, Berberrubine]
levels of M1 as share of the parent drug ([1]; BBR treatments): 75% | levels of M1 as share of the parent drug ([1]; TB-2+BBR treatments): 61% | increase in AUC on combination vs single treatment ([1]; day 35): didn’t significantly increase | increase in Cmax on combination vs single treatment ([1]; day 35): didn’t significantly increase | Cmax [1, 5]: 6.6 ± 2 ng/mL | half-life [1, 5]: 0.996 ± 0.308 days | Tmax [1, 5]: 9.4 ± 1.2 h | Cmax [1, 6]: 4.3 ± 1.7 ng/mL | half-life [1, 6]: 4.17 ± 3.84 days | Tmax [1, 6]: 10.4 ± 3.1 h | AUC [1, 5]: 94.9 ± 26.4 ng·h/mL | AUC [1, 6]: 56.3 ± 18.5 ng·h/mL | increase in AUC on co-administration vs single treatment ([2]; Wistar rats): 89% | increase in Cmax on co-administration vs single treatment ([2]; Wistar rats): 105% | AUC ratio between M1 and BBR ([2]; Wistar rats, BBR treatments): 28.1% | AUC ratio between M1 and BBR [2, 7]: 24.9% | AUC ([2]; 66.7 mg/kg): 55.7 ± 3.5 ng·h/mL | Cmax ([2]; 66.7 mg/kg): 3.5 ± 1 ng/mL | Tmax ([2]; 66.7 mg/kg): 6 h | half-life ([2]; 66.7 mg/kg): 582 min | AUC ([2]; 100 mg/kg): 106 ± 6.2 ng·h/mL | Cmax ([2]; 100 mg/kg): 7.2 ± 1.5 ng/mL | Tmax ([2]; 100 mg/kg): 9 h | half-life ([2]; 100 mg/kg): 420 min | ERliver (liver extraction ratio) ([3]; Wistar rats, oral BBR 66.7 mg/kg alone): 81.9% | ERliver (liver extraction ratio) ([3]; Wistar rats, oral BBR+TB-2 (100 mg/kg)): 81.3% | AUC in portal vein plasma, fold higher than in systemic plasma ([3]; Wistar rats, BBR treatments): approximately fivefold | AUC in portal vein plasma, fold higher than in systemic plasma [3, 7]: approximately fivefold | increase in AUC on co-administration vs single treatment ([3]; Wistar rats, systemic plasma): 95% | AUC ratio between M1 and BBR ([3]; Wistar rats, systemic plasma, BBR treatments): 40.2% | AUC ratio between M1 and BBR ([3]; Wistar rats, systemic plasma, TB-2+BBR treatments): 46.8% | Tmax ([3]; plasma, 66.7 mg/kg, Wistar rats, systemic plasma, single oral BBR 66.7 mg/kg alone): 6 h | AUC ([3]; systemic plasma, 66.7 mg/kg): 10.1 ± 0.6 ng·h/mL | Cmax ([3]; systemic plasma, 66.7 mg/kg): 1 ± 0.2 ng/mL | half-life ([3]; systemic plasma, 66.7 mg/kg): 348 min | AUC ([3]; systemic plasma, 100 mg/kg): 19.7 ± 2.9 ng·h/mL | Cmax ([3]; systemic plasma, 100 mg/kg): 2 ± 0.2 ng/mL | half-life ([3]; systemic plasma, 100 mg/kg): 114 min | Tmax ([3]; systemic plasma, 100 mg/kg, Wistar rats, systemic plasma, single oral BBR+TB-2 (100 mg/kg)): 9 h | increase in AUC on co-administration vs single treatment ([4]; Wistar rats): 282% | increase in Cmax on co-administration vs single treatment ([4]; Wistar rats): 109% | exposure (AUC) of metabolite as share of the exposure of BBR [4, 7]: 77% and 77.5% | AUC ± SE ([4]; Wistar rats, single oral BBR 66.7 mg/kg alone): 932.5 ± 155.4 h ∗ ng/g | AUC ± SE ([4]; Wistar rats, single oral BBR+TB-2 (66.7+33.3 mg/kg)): 3565.3 ± 256.7^∗∗∗ h ∗ ng/g | exposure (AUC) of metabolite as share of the exposure of BBR ([4]; Wistar rats, single treatment (On TB-2 treatments)): 29% and 28.6% | Cmax [4, 8]: 238 ± 39.5 ng/g | half-life ([4]; 33.3 mg/kg, single oral BBR+TB-2 (66.7+33.3 mg/kg)): 252 min | Tmax [4, 8]: 6 h | Cmax [4, 9]: 114 ± 10.6 ng/g | half-life ([4]; 66.7 mg/kg, single oral BBR 66.7 mg/kg alone): 276 min | Tmax [4, 9]: 4 h
